Data reported in patent publication US7723332B2, “Aryl sulfonamides useful for modulation of the progesterone receptor” (Wyeth LLC, priority 2007, dated 2010).

Tested on: alkaline phosphatase activity in T47D cells
Assay: Effects of progestins and antiprogestins on alkaline phosphatase activity in T47D cells
Assay type: cell-based
Conditions: Homo sapiens, T47D, 24 h; reference antiprogestin, in the presence of 1 nM progesterone; typical value
Method: Effects of Progestins and Antiprogestins on Alkaline Phosphatase Activity in T47D Cells
This example was performed to identify progestins or antiprogestins by determining a compound's effect on alkaline phosphatase activity in T47D cells.
Culture medium: DMEM:F12 (1:1) (GIBCO, BRL) supplemented with 5% (v/v) charcoal stripped fetal bovine serum (not heat-inactivated), 100 U/mL penicillin, 100 μg/mL streptomycin, and 2 mM the GlutaMax™ reagent (GIBCO, BRL).
Alkaline phosphatase assay buffer: • I. 0.1M Tris-HCl, pH 9.8, containing 0.2% the Triton® X-100 reagent • II. 0.1 M Tris-HCl, pH 9.8, containing 4 mM p-nitrophenyl phosphate (Sigma).
Frozen T47D cells were thawed in a 37° C. water bath and diluted to 280,000 cells/mL in culture medium. To each well in a 96-well plate (Falcon, Becton Dickinson Labware), 180 μL of diluted cell suspension was added. Twenty μL of reference or test compounds diluted in the culture medium was then added to each well. When testing for progestin antagonist activity, reference antiprogestins or test compounds were added in the presence of 1 nM progesterone. The cells were incubated at 37° C. in a 5% CO2/humidified atmosphere for 24 hours. NOTE: For high throughput screening, one concentration of each compound was tested at 0.3 μg/mL. Based on an average molecular weight of 300 g/mol for the compounds in the library, the concentration was approximately 1 μM. Subsequently, active compounds were tested in dose response assays to determine EC50 and IC50.
At the end of treatment, the medium was removed from the plate. Fifty μL of assay buffer I was added to each well. The plates were shaken in a titer plate shaker for 15 minutes. 150 μL of assay buffer II was then added to each well. Optical density measurements were taken at 5 minute intervals for 30 minutes at a test wavelength of 405 nm.
For reference and test compounds, a dose response curve was generated for dose (X-axis) vs. the rate of enzyme reaction (slope) (Y-axis). Square root-transformed data was used for analysis of variance and nonlinear dose response curve fitting for both agonist and antagonist modes. Huber weighting was used to down-weight the effects of outliners. EC50 or IC50 values were calculated from the retransformed values. JMP software (SAS Institute, Inc.) was used for both one-way analysis of variance and non-4 linear dose response analysis in both single dose and dose response studies.
Progesterone and trimegestone are reference progestins known in the art and typically show an EC50 of about 0.1 nM to about 2.0 nM.

IC50 [µM] | SMILES
0.0001 to 0.002 | CC#C[C@]1(O)CC[C@H]2[C@@H]3CCC4=CC(=O)CCC4=C3[C@@H](c3ccc(N(C)C)cc3)C[C@@]21C [RU486, reference compound]

Same assay, conditions: Homo sapiens; T47D alkaline phosphatase assay; antagonist mode in the presence of 1 nM progesterone; 24 hours

SMILES | IC50 [µM]
CCCNS(=O)(=O)c1ccc(-c2ccc(C#N)n2C)cc1OC(F)(F)F [Example 52, 4-(5-cyano-1-methyl-1H-pyrrol-2-yl)-N-propyl-2-(trifluoromethoxy)benzenesulfonamide] | 0.0084
CCN(C)S(=O)(=O)c1ccc(-c2ccc(C#N)n2C)cc1 [Example 7, 4-(5-cyano-1-methyl-1H-pyrrol-2-yl)-N-ethyl-N-methylbenzenesulfonamide] | 0.0661
Cn1c(C#N)ccc1-c1ccc(S(=O)(=O)N2CCCC2)c(OC(F)(F)F)c1 [Example 53, 1-methyl-5-[4-(pyrrolidin-1-ylsulfonyl)-3-(trifluoromethoxy)phenyl]-1H-pyrrole-2-carbonitrile] | 0.0227
Cn1c(C#N)ccc1-c1ccc(S(N)(=O)=O)c(C(F)(F)F)c1 [Example 19, 4-(5-cyano-1-methyl-1H-pyrrol-2-yl)-2-(trifluoromethyl)benzenesulfonamide] | 0.0358

Further lines, results first:

IC50 [µM] | SMILES
0.151 | Cn1c(C#N)ccc1-c1ccc(S(=O)(=O)N2CCCC2)cc1F [Example 37, 5-[2-fluoro-4-(pyrrolidin-1-ylsulfonyl)phenyl]-1-methyl-1H-pyrrole-2-carbonitrile]
0.0238 | CCCNS(=O)(=O)c1ccc(-c2ccc(C#N)n2C)cc1 [Example 4, 4-(5-cyano-1-methyl-1H-pyrrol-2-yl)-N-propylbenzenesulfonamide]
0.0627 | CN(C)S(=O)(=O)c1ccc(-c2ccc(C#N)n2C)cc1OC(F)(F)F [Example 48, 4-(5-cyano-1-methyl-1H-pyrrol-2-yl)-N,N-dimethyl-2-(trifluoromethoxy)benzenesulfonamide]
0.0382 | Cn1c(C#N)ccc1-c1ccc(S(=O)(=O)NC2CC2)c(C(F)(F)F)c1 [Example 27, 4-(5-cyano-1-methyl-1H-pyrrol-2-yl)-N-cyclopropyl-2-(trifluoromethyl)benzenesulfonamide]
0.0813 | CN(C)S(=O)(=O)c1ccc(-c2ccc(C#N)n2C)cc1 [Example 2, 4-(5-cyano-1-methyl-1H-pyrrol-2-yl)-N,N-dimethylbenzenesulfonamide]
0.164 | Cn1c(C#N)ccc1-c1cc(F)c(S(=O)(=O)NCC2CC2)cc1F [Example 62, 4-(5-cyano-1-methyl-1H-pyrrol-2-yl)-N-(cyclopropylmethyl)-2,5-difluorobenzenesulfonamide]

Same assay, conditions: T47D alkaline phosphatase assay; antagonist mode in the presence of 1 nM progesterone; 24 hours

SMILES | Active Dose [µM]
Cn1c(C#N)ccc1-c1ccc(S(=O)(=O)NC2CC2)c(F)c1 [Example 43, 4-(5-cyano-1-methyl-1H-pyrrol-2-yl)-N-cyclopropyl-2-fluorobenzenesulfonamide] | 0.03
Cn1c(C#N)ccc1-c1ccc(S(=O)(=O)NC(C)(C)C)cc1 [Example 9, N-(tert-butyl)-4-(5-cyano-1-methyl-1H-pyrrol-2-yl)benzenesulfonamide] | 10
